# Laboratory results published in article PMC12214830, “The human RIF1-Long isoform interacts with BRCA1 to promote recombinational fork repair under DNA replication stress” (Nature Communications, 2025).
# Experiments:
# Format in all cases: cell-based, human
# RAD51 foci = RAD51 foci formation, HeLa cells; settings: 24 h HU 4 mM
# Experimental: Cells were grown on glass coverslips and treated as desired. Cells were then permeabilized with 0.5% TritonX-100 in PBS for 7 min on ice, and fixed with 4% w/v formaldehyde solution (Sigma HT5012) for 10 min at room temperature (RT). After fixation, coverslips were blocked with 3% BSA in PBS (RT, 1 h), incubated with primary antibodies (RT, 2 h), washed with PBS three times and incubated with secondary antibodies (RT, 1 h). […] Fluorescence signal intensities within each nucleus were analysed by CellProfiler software with custom-made pipelines. […]
# For proximity ligation assays and immunofluorescence signal intensity measurements, when comparing between two samples, statistical significance of differences was calculated by Mann-Whitney test for non-parametric distributions using GraphPad Prism software (v.9). When comparing among three or more samples, p values were calculated by Kruskal-Wallis test for non-parametric distributions with Dunn’s multiple comparisons using GraphPad Prism software (v.9). For RIF1 foci formation analysis (Fig. 6B), p values were calculated by two-tailed Student’s t test. For nuclear BRCA1 intensity fold change analyses (Fig. 6C, D), p values were calculated by two-tailed one-sample t test using GraphPad Prism software (v.9). For RAD51 foci formation analyses (Fig. 7B, E and Supplementary Fig. 7B), p values were calculated by chi-square test. […]
# [1] = test system: RIF1-L interaction with BRCA1; experiment: RIF1-BRCA1 / RIF1-BRCA1-BRCT co-immunoprecipitation, Flp-In T-REx 293 cells; settings: HU 4 mM, 4 h or 24 h; Fig. 5H, I
# Experimental: For mCherry IP and GFP IP, cells were washed once with ice-cold TBS, lysed with IP lysis buffer (1X TBS, 0.5 mM EDTA, 1% CHAPS, 1 mM PMSF, 3 mM MgCl2, 1X Halt Protease & Phosphatase inhibitor), and incubated with 1 µl/ml Benzonase (Sigma-Aldrich, E1014) for 45 min at 4 °C with rotation. RFP-Trap or GFP-Trap Magnetic Agarose beads (Chromotek) were washed three times in IP buffer 1 (1X TBS, 0.5 mM EDTA) and then incubated with cell lysates for 1 h at 4 °C with rotation. Beads were next washed three times with IP washing buffer (1X TBS, 0.5 mM EDTA, 0.1% CHAPS, 1 mM PMSF, 250 mM NaCl, 1X Halt Protease & Phosphatase inhibitor), after which bead-bound proteins (IP fractions) were eluted by heating at 95 °C for 7 min. IP fractions were analysed by western blotting.
# For FLAG IP, cell lysates were prepared in the same way. Dynabeads magnetic beads (Invitrogen) were incubated with […] anti-FLAG antibody (Sigma-Aldrich, F1804) in PBS supplemented with 0.02% Tween-20) for 10 min at RT with rotation. The antibody-bound beads were incubated with cell lysates for 1 h at 4 °C with rotation. Beads were then washed three times with PBS, after which bead-bound proteins (IP fractions) were eluted by heating at 95 °C for 7 min. IP fractions were analysed by western blotting.
# [2] = test system: RIF1-BRCA1 proximity in HeLa cells; experiment: RIF1-BRCA1 proximity ligation assay, HeLa cells
# Experimental: Proximity ligation assays were performed using the Duolink In Situ PLA Fluorescence Protocol (Sigma-Aldrich, DUO92101) following the manufacturer’s instruction. Cells were grown on glass coverslips and treated as indicated for specific experiments. Cells were then permeabilized with 0.5% TritonX-100 in PBS for 10 min on ice, and fixed with 3% formaldehyde, 2% sucrose in PBS for 10 min at room temperature (RT). After fixation, coverslips were blocked in 3% BSA in PBS for 1 h at RT and incubated with primary antibodies (anti-RIF1, Bethel laboratories A300-568A, 1:1000 dilution; anti-BRCA1, Santa Cruz Biotechnologies, sc-6954, 1:200 dilution), for 1 h at RT in a humidity chamber. Primary antibodies were then washed off with PLA washing buffer A supplied in the Duolink In Situ PLA kit. Coverslips were next incubated sequentially with PLA Probes (1 h at 37 °C), ligation solution (30 min at 37 °C) and amplification solution (100 min at 37 °C), with washes by washing buffer A in between each step. At the end of incubation, coverslips were washed with washing buffer B supplied in the Duolink In Situ PLA kit. Coverslips were then mounted on glass slides with PLA Mounting medium with DAPI. Images were captured by fluorescence microscopy (Zeiss Axio Imager). PLA foci number in each nucleus were analysed by CellProfiler Software[74] with a custom-made pipeline.
# For proximity ligation assays and immunofluorescence signal intensity measurements, when comparing between two samples, statistical significance of differences was calculated by Mann-Whitney test for non-parametric distributions using GraphPad Prism software (v.9). When comparing among three or more samples, p values were calculated by Kruskal-Wallis test for non-parametric distributions with Dunn’s multiple comparisons using GraphPad Prism software (v.9). For RIF1 foci formation analysis (Fig. 6B), p values were calculated by two-tailed Student’s t test. For nuclear BRCA1 intensity fold change analyses (Fig. 6C, D), p values were calculated by two-tailed one-sample t test using GraphPad Prism software (v.9). For RAD51 foci formation analyses (Fig. 7B, E and Supplementary Fig. 7B), p values were calculated by chi-square test. For HR Reporter assay analysis (Fig. 7G and Supplementary Fig. 7L), p values were calculated by two-tailed paired Student’s t test. For micronuclei frequency analysis (Fig. 7H), p values were calculated by one-tailed paired Student’s t test. All Student’s t tests were performed with Excel T.TEST function. Chi-square tests were performed with the online Chi-square test calculator at https://www.socscistatistics.com/tests/chisquare2/default2.aspx. Sample number n for all box-and-whisker plots and dot plots are listed in Supplementary Data 1.
# [3] = Fig 5G/H, HeLa RIF1 KO + RIF1-L-pp1bs, HU 4 mM 24 h
# [4] = Fig 5G/H, HeLa RIF1 KO + RIF1-L, HU 4 mM 24 h
# [5] = Fig 5G/H, HeLa RIF1 KO, HU 4 mM 24 h
# [6] = Fig S3F, HeLa RIF1-L-APKF, HU 4mM 24hr
# [7] = Fig S3F, HeLa RIF1-L, HU 4mM 24hr
# [8] = Fig S3F, HeLa RIF1-S, HU 4mM 24hr
# [9] = Fig S4H, HeLa +RIF1-L, HU 4mM 24hr
# [10] = Fig S4I, HeLa +RIF1-L, HU 4mM 24hr
# [11] = Fig S5G (repeat), HeLa RIF1 WT (RIF1-L), HU 4mM 24hr
# [12] = Fig S5G (repeat), HeLa RIF1 pp1bs, HU 4mM 24hr
# [13] = Fig S5I, HeLa RIF1-L-pp1bs-APKF, HU 4mM 24hr
# [14] = Fig S5I, HeLa RIF1-L-pp1bs, HU 4mM 24hr
smiles,measurement,setting,value
"NC(=O)NO [HU, hydroxyurea]",proportion of cells containing RAD51 foci,RAD51 foci,greatly increased
same,RIF1-L interaction with BRCA1,[1],increased RIF1-L interaction with BRCA1
same,"RIF1-BRCA1 PLA foci per nucleus, mean",[2]; [3],45.51
same,"RIF1-BRCA1 PLA foci per nucleus, median",[2]; [3],42
same,"RIF1-BRCA1 PLA foci per nucleus, mean",[2]; [4],27.55
same,"RIF1-BRCA1 PLA foci per nucleus, median",[2]; [4],21
same,"RIF1-BRCA1 PLA foci per nucleus, mean",[2]; [5],1.394
same,"RIF1-BRCA1 PLA foci per nucleus, median",[2]; [5],1
same,"RIF1-BRCA1 PLA foci per nucleus, mean",[2]; [6],14.65
same,"RIF1-BRCA1 PLA foci per nucleus, median",[2]; [6],12
same,"RIF1-BRCA1 PLA foci per nucleus, mean",[2]; [7],18.04
same,"RIF1-BRCA1 PLA foci per nucleus, median",[2]; [7],15
same,"RIF1-BRCA1 PLA foci per nucleus, mean",[2]; [8],13.85
same,"RIF1-BRCA1 PLA foci per nucleus, median",[2]; [8],12
same,"RIF1-BRCA1 PLA foci per nucleus, mean",[2]; [9],21.43
same,"RIF1-BRCA1 PLA foci per nucleus, median",[2]; [9],20
same,"RIF1-BRCA1 PLA foci per nucleus, mean",[2]; [10],18.83
same,"RIF1-BRCA1 PLA foci per nucleus, median",[2]; [10],"2, 17, 17"
same,"RIF1-BRCA1 PLA foci per nucleus, mean",[2]; [11],40.69
same,"RIF1-BRCA1 PLA foci per nucleus, median",[2]; [11],37
same,"RIF1-BRCA1 PLA foci per nucleus, mean",[2]; [12],62.09
same,"RIF1-BRCA1 PLA foci per nucleus, median",[2]; [12],62
same,"RIF1-BRCA1 PLA foci per nucleus, mean",[2]; [13],46.58
same,"RIF1-BRCA1 PLA foci per nucleus, median",[2]; [13],42
same,"RIF1-BRCA1 PLA foci per nucleus, mean",[2]; [14],53.47
same,"RIF1-BRCA1 PLA foci per nucleus, median",[2]; [14],53
